# Laboratory results reported in publication PMC10786919, “Design-rules for stapled peptides with in vivo activity and their application to Mdm2/X antagonists” (Nature Communications, 2024).
# Read-outs that look alike come from different tables or passages of the source. Positions of bridges follow the written chain, without caps; N, C: chain ends. Non-standard residues stand in square brackets, D forms with d. Residues, ends and D or L forms follow the SMILES beside them. Lys(N3) = [N-]=[N+]=NCCCC[C@H](N)C(=O)O; R8 = C=CCCCCCC[C@@](C)(N)C(=O)O; S5 = C=CCCC[C@](C)(N)C(=O)O; Ahx = NCCCCCC(=O)O
# How the values were obtained:
# [1] = Experimental LogD (partition coefficient); details: for logD: not stated, Partition Coeff LogD
# HCT116 cells = experiment: Lactate dehydrogenase (LDH) release assay; format: cell-based
# Method: (§1) HCT116 cells were stably transfected with a p53 responsive β-lactamase reporter and expanded in McCoy’s 5 A Medium with 10% fetal bovine serum (FBS), Blasticidin, and Penicillin/Streptomycin and then transferred to 1.5 ml freezing vials and stored under liquid nitrogen in growth media containing 5% DMSO. […] The cells were then seeded into a 384-well plate at a density of 8000 cells per well. […] The final working concentration of DMSO was 0.5%. Lactate dehydrogenase release was detected using the CytoTox-ONE Homogenous Membrane Integrity Assay Kit (Promega), as per the manufacturer’s instructions. Measurements were carried out using the Tecan plate reader. […] Measurements were taken a minimum of three times (biological replicates) and values are reported as geometric means of the replicates.
# [2] = Lactate dehydrogenase (LDH) release assay; format: cell-based
# Method: as §1
# [3] = Solubility assay (kinetic solubility, PBS pH 7); format: physicochemical; details: pH 7, PBS; for solubility kinetic: pH 7, aqueous buffer, kinetic from dmso stock, read-out: Solubility
# Method: The standard reference solutions were prepared by diluting the 10 mM stock in 10:80:10 solution of acetonitrile:methanol:DMSO to 100 µM.
# The solubility value is calculated by the following equation:
# Solubility [µM] = (Peak area of sample/ Peak area of standard) (Standard concentration)
SMILES,LDH: Cytotoxicity assay: % Effect (HCT116 cells),EC50 ([2]; LDH: Cytotoxicity assay: EC50),logD [1],EC50 ([2]; LDH: Cytotoxicity assay EC50),solubility kinetic [3],also measured
CC(=O)N[C@@H](CCCNC(=N)N)C(=O)NCCC(=O)N[C@@H](CCCCN=[N+]=[N-])C(=O)N[C@@H](CC(C)C)C(=O)N[C@H](C(=O)N[C@@H](Cc1ccccc1)C(=O)N[C@]1(C)CCCCCCC=CCCC[C@@](C)(C(=O)N[C@@H](CO)C(=O)N[C@@H](C)C(=O)N[C@@H](C)C(N)=O)NC(=O)[C@H](CC2CCC2)NC(=O)[C@H](CCC(N)=O)NC(=O)[C@H](C)NC(=O)[C@H](Cc2c[nH]c3ccccc23)NC(=O)[C@H](Cc2ccc(O)cc2)NC(=O)[C@H](CCC(=O)O)NC1=O)[C@@H](C)O [MP-4004],7.573%,> 50 µM,,,,Partition Coeff LogD [1]: Poorly Behaved; Solubility [3]: Poorly Behaved
CC(=O)N[C@@H](CCCCN=[N+]=[N-])C(=O)N[C@@H](CCCNC(=N)N)C(=O)N[C@@H](CCCNC(=N)N)C(=O)NCCCCCC(=O)N[C@H](C(=O)N[C@@H](CO)C(=O)N[C@@H](Cc1ccccc1)C(=O)N[C@]1(C)CCCCCCC=CCCC[C@@](C)(C(=O)N[C@@H](CCC(=O)O)C(=O)N[C@@H](CC(N)=O)C(=O)N[C@@H](Cc2ccccc2)C(N)=O)NC(=O)[C@H](CC(C)C)NC(=O)[C@H](CC(C)C)NC(=O)[C@H](C)NC(=O)[C@H](Cc2c[nH]c3ccccc23)NC(=O)[C@H](Cc2ccc(O)cc2)NC(=O)[C@H](CCC(=O)O)NC1=O)[C@@H](C)O [MP-083] (Ac-[Lys(N3)]RR[Ahx]TSF[R8]EYWALL[S5]ENF-NH2; staple 8-15),,,2.54,> 50 µM,4 µM,LDH: Cytotoxicity assay % Effect (HCT116 cells): 0.165%
CC(=O)N[C@@H](CC(C)C)C(=O)N[C@H](C(=O)N[C@@H](Cc1ccccc1)C(=O)N[C@]1(C)CCCCCCC=CCCC[C@@](C)(C(=O)N[C@@H](CO)C(=O)N[C@@H](C)C(=O)N[C@@H](C)C(N)=O)NC(=O)[C@H](CC2CCC2)NC(=O)[C@H](CCC(N)=O)NC(=O)[C@H](C)NC(=O)[C@H](Cc2c[nH]c3cc(Cl)ccc23)NC(=O)[C@H](Cc2ccc(O)cc2)NC(=O)[C@H](CCC(=O)O)NC1=O)[C@@H](C)O [MP-192],,19.9 µM,,,,Partition Coeff LogD [1]: Poorly Behaved; Solubility [3]: Poorly Behaved
CC(=O)N[C@@H](CCCNC(=N)N)C(=O)N[C@@H](CCCNC(=N)N)C(=O)NCCCCCC(=O)N[C@@H](CCCCN=[N+]=[N-])C(=O)N[C@@H](CC(C)C)C(=O)N[C@H](C(=O)N[C@@H](Cc1ccccc1)C(=O)N[C@]1(C)CCCCCCC=CCCC[C@@](C)(C(=O)N[C@@H](CO)C(=O)N[C@@H](C)C(=O)N[C@@H](C)C(N)=O)NC(=O)[C@H](CC2CCC2)NC(=O)[C@H](CCC(N)=O)NC(=O)[C@H](C)NC(=O)[C@H](Cc2c[nH]c3ccccc23)NC(=O)[C@H](Cc2ccc(O)cc2)NC(=O)[C@H](CCC(=O)O)NC1=O)[C@@H](C)O [MP-007],23.39%,> 50 µM,2.83,,37 µM,
CC(=O)N[C@@H](CCCCN=[N+]=[N-])C(=O)N[C@@H](CCCCN)C(=O)N[C@@H](CCCCN)C(=O)NCCCCCC(=O)N[C@H](C(=O)N[C@@H](CO)C(=O)N[C@@H](Cc1ccccc1)C(=O)N[C@]1(C)CCCCCCC=CCCC[C@@](C)(C(=O)N[C@@H](CCC(=O)O)C(=O)N[C@@H](CC(N)=O)C(=O)N[C@@H](Cc2ccccc2)C(N)=O)NC(=O)[C@H](CC(C)C)NC(=O)[C@H](CC(C)C)NC(=O)[C@H](C)NC(=O)[C@H](Cc2c[nH]c3ccccc23)NC(=O)[C@H](Cc2ccc(O)cc2)NC(=O)[C@H](CCC(=O)O)NC1=O)[C@@H](C)O [MP-082] (Ac-[Lys(N3)]KK[Ahx]TSF[R8]EYWALL[S5]ENF-NH2; staple 8-15),,,2.46,> 50 µM,2 µM,
CC(=O)N[C@@H](CCCCN=[N+]=[N-])C(=O)NCCC(=O)N[C@@H](CC(C)C)C(=O)N[C@H](C(=O)N[C@@H](Cc1ccccc1)C(=O)N[C@]1(C)CCCCC#CC#CCCC[C@@](C)(C(=O)N[C@@H](C)C(=O)N[C@@H](C)C(=O)N[C@@H](C)C(=O)N[C@@H](C)C(=O)N[C@@H](C)C(=O)N[C@H](C)C(N)=O)NC(=O)[C@H](CC2CCC2)NC(=O)[C@H](CCC(N)=O)NC(=O)[C@H](C)NC(=O)[C@H](Cc2c[nH]c3ccccc23)NC(=O)[C@H](Cc2ccc(O)cc2)NC(=O)[C@H](CCC(=O)O)NC1=O)[C@@H](C)O [MP-616],,,2.67,,,"LDH: Cytotoxicity assay: % Effect (HCT116 cells; 0% FBS 4Hr): 12.87%; LDH: Cytotoxicity assay: % Effect (HCT116 cells; 10% FBS 16Hr): 8.138%; EC50 ([2]; 0% FBS 4Hr, read-out: LDH: Cytotoxicity assay: EC50): > 50.7 µM; EC50 ([2]; 10% FBS 16Hr, read-out: LDH: Cytotoxicity assay: EC50): > 50.7 µM"
CC(=O)N[C@@H](CCCNC(=N)N)C(=O)NCCC(=O)N[C@@H](CC(C)C)C(=O)N[C@H](C(=O)N[C@@H](Cc1ccccc1)C(=O)N[C@]1(C)CCCCCCC=CCCC[C@@](C)(C(=O)N[C@@H](CO)C(=O)N[C@@H](C)C(=O)N[C@@H](C)C(N)=O)NC(=O)[C@H](CC2CCC2)NC(=O)[C@H](CCC(N)=O)NC(=O)[C@H](C)NC(=O)[C@H](Cc2c[nH]c3ccccc23)NC(=O)[C@H](Cc2ccc(O)cc2)NC(=O)[C@H](CCC(=O)O)NC1=O)[C@@H](C)O [MP-000],6.079%,> 50 µM,2.66,,2 µM,
CC(C)C[C@@H]1NC(=O)[C@H](C)NC(=O)[C@H](Cc2c[nH]c3ccccc23)NC(=O)[C@H](Cc2ccc(O)cc2)NC(=O)[C@H](CCC(=O)O)NC(=O)[C@](C)(NC(=O)[C@H](Cc2ccccc2)NC(=O)[C@H](CO)NC(=O)[C@@H](NC(=O)CNC(=O)[C@H](CO)NC(=O)CNC(=O)[C@@H](N)CCCCN=[N+]=[N-])[C@@H](C)O)CCCCCCC=CCCC[C@@](C)(C(=O)N[C@@H](CCC(=O)O)C(N)=O)NC(=O)[C@H](CC(C)C)NC1=O [MP-011],18.05%,> 50 µM,2.05,,23 µM,
CC(=O)N[C@@H](CCCCN=[N+]=[N-])C(=O)N[C@@H](CCCCN)C(=O)N[C@@H](CCCCN)C(=O)N[C@@H](CCCCN)C(=O)NCCCCCC(=O)N[C@H](C(=O)N[C@@H](CO)C(=O)N[C@@H](Cc1ccccc1)C(=O)N[C@]1(C)CCCCCCC=CCCC[C@@](C)(C(=O)N[C@@H](CCC(=O)O)C(=O)N[C@@H](CC(N)=O)C(=O)N[C@@H](Cc2ccccc2)C(N)=O)NC(=O)[C@H](CC(C)C)NC(=O)[C@H](CC(C)C)NC(=O)[C@H](C)NC(=O)[C@H](Cc2c[nH]c3ccccc23)NC(=O)[C@H](Cc2ccc(O)cc2)NC(=O)[C@H](CCC(=O)O)NC1=O)[C@@H](C)O [MP-085] (Ac-[Lys(N3)]KKK[Ahx]TSF[R8]EYWALL[S5]ENF-NH2; staple 9-16),,,2.39,> 50 µM,2 µM,
